Experimental data taken from US7776858B2, “Methods of treatment of chronic pain using eszopiclone” (Sepracor Inc., priority 2004, dated 2010).

Key:
conscious dogs = assay: Dose escalation safety study, cardiovascular and respiratory parameters after acute intravenous administration
Protocol: To establish the safety of eszopiclone, a dose escalation study was carried out. Cardiovascular and respiratory parameters were evaluated in conscious dogs following acute intravenous administration of (R)-, (S)- or racemic zopiclone at three doses (3, 5 and 12 mg/kg).

mice = assay: Antagonism of oxotremorine induced salivation; assay type: in vivo; conditions: doses up to 300 mg/kg, p.o.
Protocol: Eszopiclone was evaluated for antimuscarinic activity in vivo.

[1] = acute intravenous, 3, 5 and 12 mg/kg

CN1CCN(C(=O)O[C@@H]2c3nccnc3C(=O)N2c2ccc(Cl)cn2)CC1 [(R)-Zopiclone]
hemodynamic effect (conscious dogs; acute intravenous, 12 mg/kg): did not produce a consistent hemodynamic effect
Blood gases and blood chemistries (pH, pCO2, pO2, hematocrit, and lactate) (conscious dogs; [1]): remained unaffected
cardiotoxicity by electrocardiogram (ECG) (conscious dogs; [1]): No evidence of cardiotoxicity
antagonism of oxotremorine induced salivation (mice): neither (R)-, (S)-, nor racemic zopiclone significantly antagonized
